System: lecithin cholesterol acyltransferase (LCAT)
Assay: Effect upon activity of lecithin cholesterol acyltransferase in rats suffering from hyperlipemia
Type: in vivo, rat
From the text: The original lecithin and cholesterol in the serum were used as substrates, which were kept warm for some time. Because of the effect of lecithin cholesterol acyltransferase (LCAT), cholesterolester (CE) in serum was increased, but free cholesterol (FC) decreased. Then cholesterol was oxidized by cholesterol oxidase and hydrogen peroxide was produced. The latter reacted with […] and phenol under the action of horseradish peroxidase to produce red quinone imide, which can be used for colorimetric analysis to determine the content of FC. The decrease in FC, ie, the esterification of cholesterol can indicate the activity of LCAT in magnitude. […]
(2) Two portions of 0.1 ml fresh serum were taken from each animal of each group and were preheated in water bath at 37° C. for five minutes, to one portion of which 3 ml cholesterol enzyme-linked reagent application solution was added (30 ml enzyme reaction solution for 1 ml cholesterol enzyme-linked reagent), mixed thoroughly and heated in water bath at 37° C. for 15 minutes while blank control tube and standard tube (0.05 ml standard cholesterol absolute alcohol solution) were made. […] OD was read and FC content was calculated in terms of Beer's law, which was the serum FC content before reaction. […] Then FC content was determined as above, expressed as OD, which was the serum FC content after reaction. […]

CCOC(=O)C(C)(C)Oc1ccc(Cl)cc1 [Astromid-s]
Effect on activity of LCAT (in words) (0.13 g/kg): not noticeable | LCAT activity (TC esterification nmol/ml/h) (hyperlipemia rat serum, dose 0.13 g/kg for seven days, x ± SD): 536 ± 277 nmol/mL/h
